The record followed here is patent US10870647B2, “Imidazopyridine derivative, method for preparing same, and pharmaceutical composition containing same as active ingredient for preventing or treating cancer” (DAEGU-GYEONGBUK MEDICAL INNOVATION FOUNDATION, priority 2016, dated 2020).

Common to all, as to assay: Kinase selectivity, scanMAX Kinase assay panel (DiscoverX), % control at 1 uM
What all share (assay type): binding

For assay [1], the target named is T1, scanMAX Kinase assay panel (Homo sapiens, UniProt P42336, E545A).
T1 construct: purchased DiscoverX
T1 sequence (P42336 whole entry E545A): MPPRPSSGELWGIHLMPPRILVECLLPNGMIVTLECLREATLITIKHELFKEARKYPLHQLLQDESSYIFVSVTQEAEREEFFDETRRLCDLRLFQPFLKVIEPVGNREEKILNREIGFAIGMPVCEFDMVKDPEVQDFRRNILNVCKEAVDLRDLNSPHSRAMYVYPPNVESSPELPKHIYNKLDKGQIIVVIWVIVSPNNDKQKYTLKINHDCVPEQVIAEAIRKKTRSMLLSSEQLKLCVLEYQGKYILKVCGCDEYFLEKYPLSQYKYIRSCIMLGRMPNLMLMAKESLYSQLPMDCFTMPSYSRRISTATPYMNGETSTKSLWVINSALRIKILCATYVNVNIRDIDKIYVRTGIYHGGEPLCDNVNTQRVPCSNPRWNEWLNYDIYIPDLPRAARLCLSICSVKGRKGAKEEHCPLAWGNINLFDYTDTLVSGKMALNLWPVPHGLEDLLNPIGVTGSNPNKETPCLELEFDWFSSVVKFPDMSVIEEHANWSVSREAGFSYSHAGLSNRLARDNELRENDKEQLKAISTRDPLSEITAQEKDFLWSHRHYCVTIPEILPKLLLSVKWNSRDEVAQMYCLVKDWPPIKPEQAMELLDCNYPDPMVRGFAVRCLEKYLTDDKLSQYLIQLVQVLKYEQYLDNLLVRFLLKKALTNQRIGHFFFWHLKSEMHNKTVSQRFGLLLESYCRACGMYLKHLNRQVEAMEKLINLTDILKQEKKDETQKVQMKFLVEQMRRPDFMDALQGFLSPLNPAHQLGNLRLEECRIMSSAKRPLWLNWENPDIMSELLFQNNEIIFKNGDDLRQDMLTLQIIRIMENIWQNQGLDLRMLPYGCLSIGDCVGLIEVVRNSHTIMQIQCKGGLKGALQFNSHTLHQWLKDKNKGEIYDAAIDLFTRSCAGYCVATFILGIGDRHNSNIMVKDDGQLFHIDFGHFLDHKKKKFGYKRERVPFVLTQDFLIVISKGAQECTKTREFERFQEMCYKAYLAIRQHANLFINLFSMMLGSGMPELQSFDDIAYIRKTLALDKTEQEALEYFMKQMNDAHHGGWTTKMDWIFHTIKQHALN
As to conditions: PIK3CA (E545A); 1 uM; read-out: Percent Control (%). The gist of the method:
(§1)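 1 uM cpd (DMSO) per kinase; % ctrl = [cpd − pos ctrl]/[neg ctrl − pos ctrl] × 100; hit if <35.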

Assay [2] addresses T2, scanMAX Kinase assay panel (Homo sapiens, UniProt O95382).
T2 construct: purchased DiscoverX
T2 sequence (O95382 1-1288): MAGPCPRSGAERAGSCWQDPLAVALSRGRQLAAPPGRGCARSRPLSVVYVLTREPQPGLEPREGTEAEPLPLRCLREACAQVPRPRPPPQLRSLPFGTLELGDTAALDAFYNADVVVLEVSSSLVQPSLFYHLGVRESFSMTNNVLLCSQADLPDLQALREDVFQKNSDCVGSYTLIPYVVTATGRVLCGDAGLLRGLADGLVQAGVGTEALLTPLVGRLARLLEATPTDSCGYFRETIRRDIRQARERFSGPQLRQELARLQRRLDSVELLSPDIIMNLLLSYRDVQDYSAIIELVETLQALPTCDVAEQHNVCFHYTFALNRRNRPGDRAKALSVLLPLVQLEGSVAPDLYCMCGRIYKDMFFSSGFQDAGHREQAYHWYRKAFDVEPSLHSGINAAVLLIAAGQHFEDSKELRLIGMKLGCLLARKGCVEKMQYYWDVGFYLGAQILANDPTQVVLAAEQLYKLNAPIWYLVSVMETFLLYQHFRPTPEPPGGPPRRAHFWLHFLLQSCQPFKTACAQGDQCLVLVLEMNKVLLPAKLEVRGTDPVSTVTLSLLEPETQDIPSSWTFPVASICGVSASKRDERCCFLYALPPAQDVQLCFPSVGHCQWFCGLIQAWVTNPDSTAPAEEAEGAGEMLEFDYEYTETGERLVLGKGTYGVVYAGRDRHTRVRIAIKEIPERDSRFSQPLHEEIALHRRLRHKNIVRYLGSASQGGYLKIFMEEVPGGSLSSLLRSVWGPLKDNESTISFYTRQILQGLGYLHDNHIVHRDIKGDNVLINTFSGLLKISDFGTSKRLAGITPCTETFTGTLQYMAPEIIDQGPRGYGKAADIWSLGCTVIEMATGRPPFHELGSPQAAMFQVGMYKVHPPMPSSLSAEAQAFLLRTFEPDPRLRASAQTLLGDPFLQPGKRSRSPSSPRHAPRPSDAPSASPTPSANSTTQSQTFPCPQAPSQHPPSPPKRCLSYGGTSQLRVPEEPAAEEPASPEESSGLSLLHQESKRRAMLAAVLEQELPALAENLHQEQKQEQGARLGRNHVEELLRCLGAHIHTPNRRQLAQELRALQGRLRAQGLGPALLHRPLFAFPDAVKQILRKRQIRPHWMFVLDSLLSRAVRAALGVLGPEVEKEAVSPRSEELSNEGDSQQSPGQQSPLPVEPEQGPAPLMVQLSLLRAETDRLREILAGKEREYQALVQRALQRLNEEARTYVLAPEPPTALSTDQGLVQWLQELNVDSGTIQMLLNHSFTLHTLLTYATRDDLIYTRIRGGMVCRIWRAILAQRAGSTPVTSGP
As to conditions: ASK2; 1 uM; read-out: Percent Control (%). The gist of the method:
as §1

The target of assay [3] is T3, scanMAX Kinase assay panel (Homo sapiens, UniProt O94921).
T3 construct: purchased DiscoverX
T3 sequence (O94921 whole entry): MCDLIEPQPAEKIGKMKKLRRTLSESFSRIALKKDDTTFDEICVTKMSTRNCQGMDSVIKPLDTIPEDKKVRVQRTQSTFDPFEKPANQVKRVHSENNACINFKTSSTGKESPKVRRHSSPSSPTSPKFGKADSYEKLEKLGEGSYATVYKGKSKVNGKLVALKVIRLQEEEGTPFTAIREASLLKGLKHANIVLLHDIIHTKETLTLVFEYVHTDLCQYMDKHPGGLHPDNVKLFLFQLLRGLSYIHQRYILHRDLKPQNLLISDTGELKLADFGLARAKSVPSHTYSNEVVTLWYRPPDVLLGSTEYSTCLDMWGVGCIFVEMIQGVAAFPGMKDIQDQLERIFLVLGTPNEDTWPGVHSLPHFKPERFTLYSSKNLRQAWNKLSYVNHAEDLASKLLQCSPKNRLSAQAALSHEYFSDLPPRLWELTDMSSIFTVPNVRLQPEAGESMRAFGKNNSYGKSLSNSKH
Conditions: PFTK1; 1 uM; read-out: Percent Control (%). The procedure, abridged: as §1

For assay [4], the target named is T4, scanMAX Kinase assay panel (Homo sapiens, UniProt Q96SB4).
T4 construct: purchased DiscoverX
T4 sequence (Q96SB4 whole entry): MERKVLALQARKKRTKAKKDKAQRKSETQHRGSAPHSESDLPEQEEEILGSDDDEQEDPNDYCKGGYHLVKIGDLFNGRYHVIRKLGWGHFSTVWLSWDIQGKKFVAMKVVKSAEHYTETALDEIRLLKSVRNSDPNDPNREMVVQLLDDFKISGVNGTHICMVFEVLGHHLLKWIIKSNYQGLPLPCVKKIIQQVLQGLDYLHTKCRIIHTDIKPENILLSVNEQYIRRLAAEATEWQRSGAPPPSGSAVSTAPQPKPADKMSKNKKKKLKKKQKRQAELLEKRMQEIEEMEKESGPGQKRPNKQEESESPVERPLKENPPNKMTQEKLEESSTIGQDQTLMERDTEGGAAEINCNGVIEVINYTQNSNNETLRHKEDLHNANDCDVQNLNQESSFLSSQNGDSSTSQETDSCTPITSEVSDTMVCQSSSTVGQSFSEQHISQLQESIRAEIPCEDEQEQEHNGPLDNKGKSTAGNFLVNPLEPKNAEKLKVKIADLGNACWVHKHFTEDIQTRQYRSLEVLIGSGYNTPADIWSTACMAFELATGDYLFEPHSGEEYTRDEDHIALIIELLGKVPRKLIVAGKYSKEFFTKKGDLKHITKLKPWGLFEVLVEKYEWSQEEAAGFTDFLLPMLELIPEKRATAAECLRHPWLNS
As to conditions: SRPK1; 1 uM; read-out: Percent Control (%). The gist of the method: as §1

Assay [5] concerns the target T5, scanMAX Kinase assay panel (Homo sapiens, UniProt Q96GD4).
T5 construct: purchased DiscoverX
As to conditions: AURKB; 1 uM; read-out: Percent Control (%). The gist of the method: as §1

Assay [6] addresses T6, scanMAX Kinase assay panel (Homo sapiens, UniProt Q9UIK4).
T6 construct: purchased DiscoverX
Conditions: DAPK2; 1 uM; read-out: Percent Control (%). The procedure, abridged: as §1

In assay [7] the target is T7, scanMAX Kinase assay panel (Homo sapiens, UniProt O60674).
T7 construct: purchased DiscoverX
T7 sequence (O60674 whole entry): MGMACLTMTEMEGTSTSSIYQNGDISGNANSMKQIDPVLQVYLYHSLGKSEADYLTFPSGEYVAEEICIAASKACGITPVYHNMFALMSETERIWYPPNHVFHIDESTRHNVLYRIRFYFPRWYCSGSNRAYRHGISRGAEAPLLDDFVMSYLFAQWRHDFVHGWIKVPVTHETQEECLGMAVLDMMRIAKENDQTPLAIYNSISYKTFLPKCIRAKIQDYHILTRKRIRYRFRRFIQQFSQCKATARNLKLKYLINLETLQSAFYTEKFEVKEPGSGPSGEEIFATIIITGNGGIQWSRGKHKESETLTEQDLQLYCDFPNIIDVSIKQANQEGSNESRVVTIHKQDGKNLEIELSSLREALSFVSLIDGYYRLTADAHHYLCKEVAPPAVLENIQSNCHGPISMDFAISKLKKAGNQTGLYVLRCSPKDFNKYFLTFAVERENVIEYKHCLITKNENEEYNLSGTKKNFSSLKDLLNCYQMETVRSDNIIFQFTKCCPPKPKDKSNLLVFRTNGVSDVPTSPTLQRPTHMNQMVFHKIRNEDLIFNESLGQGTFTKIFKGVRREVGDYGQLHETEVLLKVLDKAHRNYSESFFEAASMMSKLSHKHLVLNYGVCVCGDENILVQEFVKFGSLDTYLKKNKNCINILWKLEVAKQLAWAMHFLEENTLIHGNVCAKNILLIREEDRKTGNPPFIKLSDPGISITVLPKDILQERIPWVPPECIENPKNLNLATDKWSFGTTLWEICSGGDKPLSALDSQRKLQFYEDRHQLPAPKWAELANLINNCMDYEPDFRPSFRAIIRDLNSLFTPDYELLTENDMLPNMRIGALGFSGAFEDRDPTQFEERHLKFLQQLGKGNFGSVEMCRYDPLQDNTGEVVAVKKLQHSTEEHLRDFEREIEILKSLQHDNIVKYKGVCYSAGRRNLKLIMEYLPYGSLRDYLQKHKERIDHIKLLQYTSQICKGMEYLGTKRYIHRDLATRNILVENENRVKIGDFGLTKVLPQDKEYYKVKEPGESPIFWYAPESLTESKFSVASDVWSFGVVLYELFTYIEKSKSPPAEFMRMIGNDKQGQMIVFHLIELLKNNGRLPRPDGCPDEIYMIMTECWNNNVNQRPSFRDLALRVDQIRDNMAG
As to conditions: JAK2 (JH1domain-catalytic); 1 uM; read-out: Percent Control (%). The procedure, abridged: as §1

The target in assay [8] is T8, scanMAX Kinase assay panel (Homo sapiens, UniProt P42681).
T8 construct: purchased DiscoverX
T8 sequence (P42681 1-527): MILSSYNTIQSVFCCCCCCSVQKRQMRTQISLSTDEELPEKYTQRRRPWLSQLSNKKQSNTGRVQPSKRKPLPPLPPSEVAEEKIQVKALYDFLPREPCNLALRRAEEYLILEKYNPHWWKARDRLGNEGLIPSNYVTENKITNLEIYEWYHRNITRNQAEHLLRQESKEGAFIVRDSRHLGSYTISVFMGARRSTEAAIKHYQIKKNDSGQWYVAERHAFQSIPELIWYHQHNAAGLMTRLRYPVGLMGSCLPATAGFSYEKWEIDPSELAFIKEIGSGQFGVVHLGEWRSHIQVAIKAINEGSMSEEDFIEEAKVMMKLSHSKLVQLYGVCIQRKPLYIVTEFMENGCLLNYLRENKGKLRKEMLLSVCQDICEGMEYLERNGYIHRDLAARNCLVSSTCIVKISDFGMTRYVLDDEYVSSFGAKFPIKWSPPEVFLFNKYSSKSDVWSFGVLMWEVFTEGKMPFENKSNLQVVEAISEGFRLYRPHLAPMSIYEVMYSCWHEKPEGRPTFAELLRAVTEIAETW
Conditions: TXK; 1 uM; read-out: Percent Control (%). The procedure, abridged:
as §1

T6 sequence (Q9UIK4 whole entry): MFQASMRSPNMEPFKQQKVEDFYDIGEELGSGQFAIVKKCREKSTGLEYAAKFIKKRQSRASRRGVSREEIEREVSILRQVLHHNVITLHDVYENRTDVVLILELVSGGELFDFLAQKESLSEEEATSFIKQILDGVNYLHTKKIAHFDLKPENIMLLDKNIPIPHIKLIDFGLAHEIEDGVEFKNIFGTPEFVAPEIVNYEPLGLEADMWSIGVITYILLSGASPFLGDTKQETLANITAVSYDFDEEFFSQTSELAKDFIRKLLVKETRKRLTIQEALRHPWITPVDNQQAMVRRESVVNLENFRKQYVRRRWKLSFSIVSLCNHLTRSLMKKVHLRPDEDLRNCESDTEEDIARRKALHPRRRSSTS
T5 sequence (Q96GD4 whole entry): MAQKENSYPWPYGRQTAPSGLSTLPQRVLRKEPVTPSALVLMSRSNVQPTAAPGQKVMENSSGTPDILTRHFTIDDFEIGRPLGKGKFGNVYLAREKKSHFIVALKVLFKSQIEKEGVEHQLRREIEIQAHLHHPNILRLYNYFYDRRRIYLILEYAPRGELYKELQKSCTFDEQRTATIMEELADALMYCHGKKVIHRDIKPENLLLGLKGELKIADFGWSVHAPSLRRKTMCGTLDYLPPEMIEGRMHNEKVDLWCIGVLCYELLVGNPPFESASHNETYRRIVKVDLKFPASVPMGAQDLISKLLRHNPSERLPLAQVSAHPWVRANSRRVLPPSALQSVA

On to `Cc1ccc(C(=O)Nc2ccc(CN3CCN(C)CC3)c(C(F)(F)F)c2)cc1C#Cc1cnc2c(Nc3cnn(C)c3)cccn12` [Example 1, 4-methyl-3-((8-((1-methyl-1H-pyrazol-4-yl)amino)imidazo[1,2-a]pyridin-3-yl)ethynyl)-N-(4-((4-methylpiperazin-1-yl)methyl)-3-(trifluoromethyl)phenyl)benzamide], for which the remaining binding at 1 µM was 87% in assay [1]; 71% in assay [2]; 11% in assay [3]; 3% in assay [4]; 3% in assay [5]; 82% in assay [6]. The values for the remaining binding at 1 µM in assay [7] and in assay [8] were 7% and 1%, respectively.
Consider `Cc1cn(-c2cc(NC(=O)c3ccc(C)c(C#Cc4cnc5c(Nc6cnn(C)c6)cccn45)c3)cc(C(F)(F)F)c2)cn1` [Example 12, 4-methyl-N-(3-(4-methyl-1H-imidazol-1-yl)-5-(trifluoromethyl)phenyl)-3-((8-((1-methyl-1H-pyrazol-4-yl)amino)imidazo[1,2-a]pyridin-3-yl)ethynyl)benzamide], for which the remaining binding at 1 µM worked out at 79% in assay [1]; 81% in assay [2]; 87% in assay [3]; 69% in assay [4]; 56% in assay [5]; 97% in assay [6]. The remaining binding at 1 µM turned out to be 100% in assay [7] and 3% in assay [8].
Turning to `Cc1ccc(NC(=O)C2(C(=O)Nc3ccc(F)cc3)CC2)cc1C#Cc1cnc2c(Nc3cnn(C(C)C)c3)cccn12` [Example 78], the remaining binding at 1 µM turned out to be 100% in assay [1]; 100% in assay [2]; 100% in assay [3]; 97% in assay [4]; 34% in assay [5]; 100% in assay [6]. Moreover, the figures for the remaining binding at 1 µM in assay [7] and in assay [8] were 98% and 91%, respectively.
